Measurements from patent US12622910B2, “Inhibitors of Bruton's tyrosine kinase and methods of their use” (Janssen Pharmaceutica NV, priority 2021, dated 2026).
Where two headings read alike, the source gives them in different places. Marks after values point to notes of the source that are not given here.

Legend:
[1] = Metabolic stability in liver microsomes; format: in vitro ADME, rat
Experimental: (§1) Additional Data on Preclinical PK Profile—Protein binding of the compound of Formula (III) was studied using an equilibrium dialysis method in plasma from human, cynomolgus monkey, beagle dog, Sprague Dawley rat, CD-1 mouse, and guinea pig at 0.25, 2.5, and 25 μM. […] In human and monkey, the plasma protein binding was concentration dependent. […] Free fraction of the compound of Formula (III) in liver microsomes from various species ranged from 75.1% to 87.9% at 0.25 mg/mL and from 58.9% to 86.5% at 1.0 mg/mL (Table 17). […] In hepatocytes, the compound of Formula (III) turnover followed a similar trend, with T1/2 ranging from 75.3 minutes in monkey to 278.1 minutes in human.

[2] = Preclinical PK, oral and IV; format: in vivo, rat; conditions: for Cmax / Tmax / AUC(0-inf): po, 5 mg/kg; for AUC(0-inf): read-out: Oral AUCinf
[3] = test system: CYP3A; experiment: CYP induction in plated human hepatocytes, midazolam probe; format: in vitro ADME; conditions: 48 hours
[4] = Metabolic stability in hepatocytes; format: in vitro ADME; conditions: for half-life: read-out: T1/2, hepatocytes
Experimental: as §1

[5] = biological target: T1, CYP3A4 (Homo sapiens, UniProt P08684); experiment: Metabolism by recombinant CYPs; format: in vitro ADME; conditions: 1 μM, 100 pmol P450/mL, 1 mM NADPH
T1 construct: with specific CYP probe substrates in human liver microsomes; from tissue; host or cells: human liver microsomes
Experimental: To assess the potential of the compound of Formula (III) to be a time-dependent inhibitor of CYP3A, human liver microsomes were preincubated for 30 minutes at 37° C. with the compound of Formula (III) at concentrations up to 10 μM, and CYP3A activity was measured using testosterone as a probe substrate. […] The potential of the compound of Formula (III) to induce CYPs at the transcriptional level was assessed using Puracyp™ DPX2 (CYP3A4, PXR) and DRE (CYP1A2, AhR) luciferase-reporter cell lines; rifampicin and omeprazole were used as positive controls for CYP3A and CYP1A induction, respectively. The activation by the compound of Formula (III) was <20% of positive control values for PXR (6.6% and 14.1% at 1 and 10 μM change, respectively) or AhR (0.1% and 0.3% change, respectively). […] Potential involvement of various CYP isoforms in the metabolism of the compound of Formula (III) was investigated by measuring the parent compound remaining after 1-hour incubation with the compound of Formula (III) (1 μM) with recombinant CYPs (rCYPs) at 100 pmol P450/mL in the presence of 1 mM NADPH at 37° C. The only isozyme that produced notable the compound of Formula (III) turnover with <1% parent remaining after 1-hour incubation was CYP3A4 (FIG. 24). […]

[6] = biological target: Ach (h) (Homo sapiens, UniProt P22303); experiment: Receptor panel, Study 2; format: binding
Experimental: (§2) RESULTS AND DISCUSSION—Selectivity—The compound of Formula (III) was evaluated in three selectivity panels to assess the potential for off-target pharmacology (Table 8). […] The kinase off-target profile of The compound of Formula (III) was assessed in a full human wild-type panel using radiometric kinase activity assays (KinaseProfiler™ and IC50Profiler™; Eurofins Scientific) (Table 9; FIG. 23). The compound of Formula (III) inhibited 4/278 kinases >50% at 1 micromolar, identifying BTK and the three other kinases having analogous Cys residues with the potential for covalent inhibition (BMX, TEC, BLK). […]. The cellular kinase selectivity of The compound of Formula (III) was established in native Ramos B cell kinome assays (KiNativ™; ActivX) confirmed BTK as the primary target with inhibition of BLK and TEC inhibition detected (Table 10).

[7] = biological target: AR (h) (Homo sapiens, UniProt P10275); experiment: Receptor panel, Study 2; format: binding
Experimental: as §2

[8] = biological target: Beta2 (h) (Homo sapiens, UniProt P07550); experiment: Receptor panel, Study 2; format: binding
Experimental: as §2

[9] = biological target: MAO-A (Rattus norvegicus, UniProt P21396); experiment: Receptor panel, Study 2; format: binding
Experimental: as §2

[10] = test system: P-gp (MDR1); experiment: in vitro; conditions: dog, MDCK-MDR1
Experimental: In vitro Absorption, Distribution, Metabolism, and Excretion—The compound of Formula (III) was assessed at a concentration of 5 μM in cell permeability models.

[11] = biological target: BTK (Homo sapiens, UniProt Q06187); experiment: Ramos B cell BTK occupancy assay (probe ELISA); format: cell-based; parameters: endogenous in cells
Experimental: In vitro cellular target engagement-The dose-response of BTK occupancy was assessed using a Ramos B cell occupancy assay. Irreversible reaction with […] excludes it from further reaction and enables selective detection of the free (unreacted) BTK with a chemical probe, which utilizes the same binding site and reaction mechanism as the compound of formula (III). The probe carries a biotin sidechain to tag free BTK with an affinity handle to enable detection by ELISA.

[12] = Population PK model and simulations; parameters: species or system human
[13] = Preclinical PK, oral and IV; format: in vivo, monkey
[14] = Plasma protein binding, equilibrium dialysis; format: in vitro ADME, guinea pig
Experimental: as §1

[15] = rat, in vivo, 5 mg/kg crystalline suspension PO (0.5% HPMC)
[16] = rat, in vivo, 5 mg/kg solution PO (20% HPβCD)

Sequence of BTK (Q06187 whole entry): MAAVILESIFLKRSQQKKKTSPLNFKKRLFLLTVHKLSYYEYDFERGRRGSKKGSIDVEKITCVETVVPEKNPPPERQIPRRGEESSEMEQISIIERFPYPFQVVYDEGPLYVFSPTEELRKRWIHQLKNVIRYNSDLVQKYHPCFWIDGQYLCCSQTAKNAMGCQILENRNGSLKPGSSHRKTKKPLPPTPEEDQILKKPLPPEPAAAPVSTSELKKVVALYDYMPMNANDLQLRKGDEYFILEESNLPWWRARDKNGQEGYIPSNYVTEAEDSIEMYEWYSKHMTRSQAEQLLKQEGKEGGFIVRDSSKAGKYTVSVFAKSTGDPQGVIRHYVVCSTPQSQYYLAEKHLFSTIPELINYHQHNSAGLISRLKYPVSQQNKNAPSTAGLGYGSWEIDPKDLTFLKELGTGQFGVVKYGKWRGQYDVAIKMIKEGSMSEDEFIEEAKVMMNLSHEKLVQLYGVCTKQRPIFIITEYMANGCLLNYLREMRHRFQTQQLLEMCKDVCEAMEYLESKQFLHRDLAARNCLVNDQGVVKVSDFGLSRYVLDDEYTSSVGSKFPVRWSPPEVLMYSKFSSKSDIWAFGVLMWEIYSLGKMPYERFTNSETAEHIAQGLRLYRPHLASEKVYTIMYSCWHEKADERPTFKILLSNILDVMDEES
Sequence of Beta2 (h) (P07550 whole entry): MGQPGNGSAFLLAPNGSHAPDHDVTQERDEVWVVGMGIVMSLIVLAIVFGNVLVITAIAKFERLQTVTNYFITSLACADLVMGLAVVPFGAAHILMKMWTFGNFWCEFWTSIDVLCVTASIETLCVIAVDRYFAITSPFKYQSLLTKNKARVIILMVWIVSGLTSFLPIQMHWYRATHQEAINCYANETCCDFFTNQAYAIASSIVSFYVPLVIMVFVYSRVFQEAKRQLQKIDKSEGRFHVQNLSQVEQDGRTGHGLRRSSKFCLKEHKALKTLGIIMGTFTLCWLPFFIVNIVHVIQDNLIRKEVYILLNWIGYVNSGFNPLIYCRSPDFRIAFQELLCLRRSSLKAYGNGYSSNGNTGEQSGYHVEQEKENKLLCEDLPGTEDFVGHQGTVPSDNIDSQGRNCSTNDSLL
Sequence of MAO-A (P21396 whole entry): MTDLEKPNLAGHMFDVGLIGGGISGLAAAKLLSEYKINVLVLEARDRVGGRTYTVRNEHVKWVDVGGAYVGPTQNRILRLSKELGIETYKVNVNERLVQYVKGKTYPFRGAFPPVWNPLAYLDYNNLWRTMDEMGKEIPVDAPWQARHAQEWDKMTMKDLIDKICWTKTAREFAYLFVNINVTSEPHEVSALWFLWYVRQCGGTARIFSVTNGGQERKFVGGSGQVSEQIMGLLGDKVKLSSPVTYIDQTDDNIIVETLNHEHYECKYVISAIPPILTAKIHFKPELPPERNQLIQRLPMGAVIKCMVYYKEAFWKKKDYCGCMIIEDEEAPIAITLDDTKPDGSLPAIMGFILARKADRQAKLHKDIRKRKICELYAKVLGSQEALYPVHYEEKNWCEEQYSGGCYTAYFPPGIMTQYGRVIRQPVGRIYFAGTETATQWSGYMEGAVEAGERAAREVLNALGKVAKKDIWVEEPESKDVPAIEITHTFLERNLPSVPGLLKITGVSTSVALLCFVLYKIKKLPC
T1 sequence (P08684 whole entry): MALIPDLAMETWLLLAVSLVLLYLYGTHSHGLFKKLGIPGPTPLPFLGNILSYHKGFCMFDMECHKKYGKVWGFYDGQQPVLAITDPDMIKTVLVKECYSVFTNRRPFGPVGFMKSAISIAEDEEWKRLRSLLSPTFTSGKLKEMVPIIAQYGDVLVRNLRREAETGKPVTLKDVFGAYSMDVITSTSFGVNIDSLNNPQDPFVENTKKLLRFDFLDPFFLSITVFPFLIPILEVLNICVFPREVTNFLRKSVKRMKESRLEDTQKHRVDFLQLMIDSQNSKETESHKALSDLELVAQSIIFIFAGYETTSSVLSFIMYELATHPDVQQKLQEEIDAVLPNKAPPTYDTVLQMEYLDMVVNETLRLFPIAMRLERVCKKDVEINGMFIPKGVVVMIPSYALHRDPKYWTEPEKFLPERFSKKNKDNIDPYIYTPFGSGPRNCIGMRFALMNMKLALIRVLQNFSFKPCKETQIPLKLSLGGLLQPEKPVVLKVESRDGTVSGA
Sequence of Ach (h) (P22303 32-614): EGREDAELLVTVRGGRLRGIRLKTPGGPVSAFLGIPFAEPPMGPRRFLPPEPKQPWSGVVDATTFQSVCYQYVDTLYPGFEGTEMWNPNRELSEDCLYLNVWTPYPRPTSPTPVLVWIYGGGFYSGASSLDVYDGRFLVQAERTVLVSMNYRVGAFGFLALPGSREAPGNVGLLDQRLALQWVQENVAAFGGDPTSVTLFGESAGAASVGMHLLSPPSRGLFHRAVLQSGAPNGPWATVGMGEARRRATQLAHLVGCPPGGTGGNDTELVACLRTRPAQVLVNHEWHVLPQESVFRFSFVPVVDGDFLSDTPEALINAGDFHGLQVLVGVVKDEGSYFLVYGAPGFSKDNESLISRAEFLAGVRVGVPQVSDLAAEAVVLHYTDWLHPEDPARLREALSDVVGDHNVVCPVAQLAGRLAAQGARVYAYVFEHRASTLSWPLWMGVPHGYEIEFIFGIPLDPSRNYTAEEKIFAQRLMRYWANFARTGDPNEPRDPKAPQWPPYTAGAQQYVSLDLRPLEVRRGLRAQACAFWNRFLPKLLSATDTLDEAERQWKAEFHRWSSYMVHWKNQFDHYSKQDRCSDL
Sequence of AR (h) (P10275 whole entry): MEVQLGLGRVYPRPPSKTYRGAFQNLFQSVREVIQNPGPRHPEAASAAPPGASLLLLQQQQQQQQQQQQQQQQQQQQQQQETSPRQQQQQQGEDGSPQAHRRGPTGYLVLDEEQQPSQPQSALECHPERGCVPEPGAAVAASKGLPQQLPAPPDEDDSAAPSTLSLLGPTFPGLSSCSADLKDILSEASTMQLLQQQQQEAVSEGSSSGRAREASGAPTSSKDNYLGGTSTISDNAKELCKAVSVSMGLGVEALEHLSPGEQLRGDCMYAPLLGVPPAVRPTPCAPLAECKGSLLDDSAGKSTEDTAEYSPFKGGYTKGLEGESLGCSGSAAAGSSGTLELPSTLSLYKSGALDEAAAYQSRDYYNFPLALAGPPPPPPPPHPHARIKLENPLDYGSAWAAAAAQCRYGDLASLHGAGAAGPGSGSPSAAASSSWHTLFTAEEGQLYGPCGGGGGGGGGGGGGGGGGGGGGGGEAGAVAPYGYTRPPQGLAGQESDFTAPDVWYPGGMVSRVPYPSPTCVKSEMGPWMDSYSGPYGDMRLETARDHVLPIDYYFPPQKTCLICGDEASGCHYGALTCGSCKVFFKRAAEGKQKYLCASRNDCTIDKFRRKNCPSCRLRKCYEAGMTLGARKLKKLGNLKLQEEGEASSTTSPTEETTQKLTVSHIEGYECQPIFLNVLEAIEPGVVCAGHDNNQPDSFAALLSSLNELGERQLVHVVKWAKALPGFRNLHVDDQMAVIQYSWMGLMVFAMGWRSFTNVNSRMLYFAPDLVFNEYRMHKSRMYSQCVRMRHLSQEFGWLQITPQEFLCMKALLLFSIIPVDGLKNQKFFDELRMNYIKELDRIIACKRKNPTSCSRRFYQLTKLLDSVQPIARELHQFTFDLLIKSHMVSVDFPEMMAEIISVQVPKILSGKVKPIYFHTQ

For C=CC(=O)N[C@H]1CCC[C@H]1NC(=O)c1sc2nccc3c2c1NC(=O)N3c1cnc(CC(C)C)cc1C (atropisomer, axis not shown) [compound of Formula (III), N-((1R,2S)-2-Acrylamidocyclopentyl)-5-(S)-(6-isobutyl-4-methylpyridin-3-yl)-4-oxo-4,5-dihydro-3H-1-thia-3,5,8-triazaacenaphthylene-2-carboxamide], which “Extraction Ratio, liver microsomes” value ([1]; Rat) is on record?
The value was 0.58.

What about the microsomal CLint ([1]; rat, liver microsomes) of the same compound?
Its microsomal CLint is 53.8 µL/min/mg.

What about the half-life ([1]; rat, liver microsomes, read-out: T1/2, liver microsomes) of the same compound?
The half-life was 0.215 h.

And the F ([2]; 5 mg/kg crystalline suspension PO (0.5% HPMC))?
The F was 41 ± 19^b %.

What about the F ([2]; 5 mg/kg solution PO (20% HPβCD)) of the same compound?
Its F is 28 ± 6^a; %.

And the clearance ([2]; rat, in vivo, iv)?
The clearance was 55 ± 2 mL/min/kg.

What about the half-life ([2]; rat, in vivo, iv, read-out: IV T1/2 (converted)) of the same compound?
Its half-life is 0.4 h.

And the Vd ([2]; rat, in vivo, iv, read-out: Vss)?
The Vd was 1.9 ± 0.2 L/kg.

And the Cmax [2, 15]?
The Cmax was 133 ± 53 ng/mL.

And the Tmax [2, 15]?
The Tmax was 1.7 ± 0.6 h.

And the AUC(0-inf) [2, 15]?
Its AUC(0-inf) is 626 ± 290 ng·h/mL.

And the Cmax [2, 16]?
Its Cmax is 189 ± 81 ng/mL.

What about the Tmax [2, 16] of the same compound?
Its Tmax is 0.5 h.

And the AUC(0-inf) [2, 16]?
Its AUC(0-inf) is 425 ± 96 ng·h/mL.

And the “change in CYP3A enzyme activity” value ([3]; 1 μM)?
Its value is −0.8%.

And the “change in CYP3A enzyme activity” value ([3]; 10 μM)?
Its value is 0.8%.

And the hepatocyte CLint ([4]; dog)?
The hepatocyte CLint was 19.2 µL/min/1e6 cells.

What about the half-life ([4]; dog) of the same compound?
Its half-life is 4.62 h.

What about the hepatocyte CLint ([4]; human) of the same compound?
Its hepatocyte CLint is 15.4 µL/min/1e6 cells.

What about the half-life ([4]; human) of the same compound?
Its half-life is 4.64 h.

What about the hepatocyte CLint ([4]; rat) of the same compound?
The hepatocyte CLint was 52.3 µL/min/1e6 cells.

And the half-life ([4]; rat)?
Its half-life is 2.12 h.

What about the “parent remaining after 1-hour incubation” value [5] of the same compound?
Its value is under 1%.

And the inhibition at 10 µM [6]?
The inhibition at 10 µM was 11%.

And the inhibition at 10 µM [7]?
The inhibition at 10 µM was under 10%.

What about the inhibition at 10 µM [8] of the same compound?
Its inhibition at 10 µM is under 10%.

What about the inhibition at 10 µM [9] of the same compound?
The inhibition at 10 µM was 14%.

And the Papp A→B at 5 μM [10]?
Its Papp A→B at 5 μM is under 0.483 ×10⁻⁶ cm/s.

What about the Papp B→A at 5 μM [10] of the same compound?
Its Papp B→A at 5 μM is 55.4 ×10⁻⁶ cm/s.

What about the efflux ratio at 5 μM [10] of the same compound?
The efflux ratio at 5 μM was over 115.

And the “time to full BTK occupancy” value ([11]; 100 and 300 nM)?
Its value is at most 40 min.

And the IC50 ([11]; Ramos B cells, n=11, read-out: BTK occupancy IC50 (mean±SD))?
Its IC50 is 21 ± 7 nM.

And the “V2/F, popPK estimate” value ([12]; model (A), first 5 SAD cohorts)?
Its value is 43.0 L.

And the “V2/F, popPK estimate” value ([12]; model (B), all SAD and MAD data)?
The value was 49.5 L.

What about the clearance ([13]; monkey, in vivo, iv) of the same compound?
Its clearance is 3.1 ± 0.3 mL/min/kg.

What about the half-life ([13]; monkey, in vivo, iv, read-out: IV T1/2 (converted)) of the same compound?
The half-life was 4 h.

And the Vd ([13]; monkey, in vivo, iv, read-out: Vss)?
The Vd was 0.7 L/kg.

What about the Cmax ([13]; monkey, in vivo, oral) of the same compound?
Its Cmax is 1010 ± 94 ng/mL.

And the Tmax ([13]; monkey, in vivo, oral)?
The Tmax was 1.7 ± 0.6 h.

And the AUC(0-inf) ([13]; monkey, in vivo, oral, read-out: Oral AUCinf)?
Its AUC(0-inf) is 10000 ± 2270 ng·h/mL.

And the F ([13]; oral, monkeys)?
Its F is 75 ± 17%.

And the “% Free in plasma” value ([14]; 2.5 μM)?
Its value is 3.23%.

And the “% Free in plasma” value ([14]; 25 μM)?
The value was 3.72%.

And the fraction unbound at 0.25 μM ([14]; guinea pig, plasma, 0.25 μM, read-out: % Free in plasma)?
The fraction unbound at 0.25 μM was 0.0326.
